{"source": "ChEMBL document CHEMBL1201862", "about": "“PubChem BioAssay data set” (2004)", "key": {"[1]": {"molecular_target": "T1, G-protein coupled receptor 55 (Homo sapiens, UniProt Q9Y2T6)", "T1 sequence (Q9Y2T6 whole entry)": "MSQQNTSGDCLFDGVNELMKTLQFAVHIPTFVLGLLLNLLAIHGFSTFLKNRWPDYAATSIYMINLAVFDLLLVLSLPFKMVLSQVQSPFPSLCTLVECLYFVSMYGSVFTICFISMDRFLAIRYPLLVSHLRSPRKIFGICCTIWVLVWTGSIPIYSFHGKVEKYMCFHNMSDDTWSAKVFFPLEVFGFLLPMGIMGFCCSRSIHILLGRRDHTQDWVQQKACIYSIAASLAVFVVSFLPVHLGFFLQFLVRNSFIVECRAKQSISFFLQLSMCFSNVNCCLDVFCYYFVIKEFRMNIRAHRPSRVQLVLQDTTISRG", "test": "selective activators of receptor GPR55 – imaging, U2OS cells, beta-arrestin-GFP redistribution, primary screen (AID 1961)", "assay_type": "functional"}, "[2]": {"molecular_target": "T2, Cannabinoid receptor 2 (Homo sapiens, UniProt P34972)", "T2 sequence (P34972 whole entry)": "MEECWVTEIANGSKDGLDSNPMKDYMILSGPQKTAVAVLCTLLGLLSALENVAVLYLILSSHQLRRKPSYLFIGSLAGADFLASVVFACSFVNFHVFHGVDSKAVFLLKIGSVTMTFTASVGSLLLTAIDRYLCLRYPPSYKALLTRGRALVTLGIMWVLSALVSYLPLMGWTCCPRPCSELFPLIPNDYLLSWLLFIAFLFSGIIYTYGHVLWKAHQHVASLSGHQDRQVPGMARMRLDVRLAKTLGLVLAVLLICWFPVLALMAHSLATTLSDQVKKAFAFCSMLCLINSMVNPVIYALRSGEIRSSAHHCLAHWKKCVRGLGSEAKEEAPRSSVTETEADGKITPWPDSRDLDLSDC", "test": "SAR analysis of antagonists of the Cannabinoid Receptor 2 using an Image-Based Assay - Set 2. [Related pubchem assays (depositor defined):AID1961, AID1965]", "assay_type": "functional"}, "[3]": {"molecular_target": "T2, Cannabinoid receptor 2", "test": "SAR analysis of agonists of the Cannabinoid Receptor 2 using an Image-Based Assay - Set 2. [Related pubchem assays (depositor defined):AID1961, AID1965]", "assay_type": "functional"}, "[4]": {"molecular_target": "T1, G-protein coupled receptor 55", "test": "SAR analysis of selective Agonists of GPR55 using an Image-Based Assay. [Related pubchem assays (depositor defined):AID1961, AID1965]", "assay_type": "functional"}, "[5]": {"molecular_target": "Cannabinoid receptor 1 (Homo sapiens, UniProt P21554)", "sequence (P21554 whole entry)": "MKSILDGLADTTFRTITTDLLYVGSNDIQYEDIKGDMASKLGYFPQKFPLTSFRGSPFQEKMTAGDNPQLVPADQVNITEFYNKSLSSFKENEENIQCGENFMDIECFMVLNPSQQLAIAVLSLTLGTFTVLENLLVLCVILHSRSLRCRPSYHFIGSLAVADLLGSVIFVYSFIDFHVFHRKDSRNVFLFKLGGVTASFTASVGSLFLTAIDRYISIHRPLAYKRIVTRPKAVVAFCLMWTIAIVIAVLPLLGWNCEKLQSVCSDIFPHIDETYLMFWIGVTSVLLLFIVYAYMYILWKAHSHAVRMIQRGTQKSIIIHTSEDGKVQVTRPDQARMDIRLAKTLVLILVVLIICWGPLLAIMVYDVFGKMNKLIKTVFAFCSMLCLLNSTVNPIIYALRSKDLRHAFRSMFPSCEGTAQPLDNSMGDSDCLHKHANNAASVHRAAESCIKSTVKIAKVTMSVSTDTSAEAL", "test": "SAR analysis of antagonists of the Cannabinoid Receptor 1 using an Image-Based Assay. [Related pubchem assays (depositor defined):AID1961, AID1965]", "assay_type": "functional"}, "[6]": {"molecular_target": "T3, Bcl-2-related protein A1 (Mus musculus, UniProt Q07440)", "T3 sequence (Q07440 whole entry)": "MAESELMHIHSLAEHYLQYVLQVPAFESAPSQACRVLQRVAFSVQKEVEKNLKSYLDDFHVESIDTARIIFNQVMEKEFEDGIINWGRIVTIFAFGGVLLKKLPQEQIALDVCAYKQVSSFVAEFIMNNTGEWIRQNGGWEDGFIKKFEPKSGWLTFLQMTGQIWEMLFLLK", "assay_type": "functional"}, "[7]": {"molecular_target": "T4, Ubiquitin-conjugating enzyme E2 N (Homo sapiens, UniProt P61088)", "T4 sequence (P61088 whole entry)": "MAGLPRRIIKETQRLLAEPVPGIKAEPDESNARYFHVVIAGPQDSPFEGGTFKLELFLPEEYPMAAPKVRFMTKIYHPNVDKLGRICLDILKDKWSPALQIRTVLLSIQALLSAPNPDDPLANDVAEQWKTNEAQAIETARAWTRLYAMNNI", "assay_type": "functional"}, "[8]": {"molecular_target": "T4, Ubiquitin-conjugating enzyme E2 N", "assay_type": "functional", "remark": "listed apart in the source"}, "[9]": {"molecular_target": "T5, DNA repair protein RAD52 homolog (Homo sapiens, UniProt P43351)", "T5 sequence (P43351 whole entry)": "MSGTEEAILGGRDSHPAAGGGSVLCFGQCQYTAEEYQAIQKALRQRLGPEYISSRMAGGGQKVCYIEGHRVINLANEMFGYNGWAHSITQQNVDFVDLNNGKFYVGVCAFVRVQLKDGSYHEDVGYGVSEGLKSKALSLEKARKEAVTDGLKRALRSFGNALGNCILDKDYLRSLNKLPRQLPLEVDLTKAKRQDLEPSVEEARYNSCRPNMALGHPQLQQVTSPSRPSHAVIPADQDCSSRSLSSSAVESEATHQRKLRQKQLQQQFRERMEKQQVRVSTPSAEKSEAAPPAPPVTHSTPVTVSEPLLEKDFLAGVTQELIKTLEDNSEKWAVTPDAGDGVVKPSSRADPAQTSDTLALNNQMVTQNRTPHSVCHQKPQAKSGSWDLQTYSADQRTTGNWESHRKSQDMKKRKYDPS", "assay_type": "functional, biochemical"}, "[10]": {"molecular_target": "T6, Tyrosine-protein phosphatase non-receptor type 7 (Homo sapiens, UniProt P35236)", "T6 sequence (P35236 whole entry)": "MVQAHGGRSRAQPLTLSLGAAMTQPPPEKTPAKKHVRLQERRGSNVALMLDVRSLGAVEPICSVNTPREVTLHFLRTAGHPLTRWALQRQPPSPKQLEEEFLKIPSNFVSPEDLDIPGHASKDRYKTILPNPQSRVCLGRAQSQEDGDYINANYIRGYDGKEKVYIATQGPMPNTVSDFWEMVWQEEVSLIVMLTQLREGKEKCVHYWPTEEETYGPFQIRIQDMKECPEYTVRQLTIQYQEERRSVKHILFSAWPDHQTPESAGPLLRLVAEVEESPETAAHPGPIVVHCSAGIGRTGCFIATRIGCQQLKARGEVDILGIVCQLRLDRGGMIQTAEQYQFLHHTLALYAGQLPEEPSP", "test": "redox-active compounds inhibiting HePTP phosphatase – biochemical, fluorescence, mechanism study (AID 2068)", "assay_type": "functional"}, "[11]": {"test": "cells", "assay_type": "functional, cell-based"}, "[12]": {"test": "cells", "assay_type": "functional, cell-based", "remark": "listed apart in the source"}, "[13]": {"molecular_target": "Exodeoxyribonuclease V (Escherichia coli (strain K12), UniProt P04993+P07648+P08394)", "sequence (P04993 whole entry)": "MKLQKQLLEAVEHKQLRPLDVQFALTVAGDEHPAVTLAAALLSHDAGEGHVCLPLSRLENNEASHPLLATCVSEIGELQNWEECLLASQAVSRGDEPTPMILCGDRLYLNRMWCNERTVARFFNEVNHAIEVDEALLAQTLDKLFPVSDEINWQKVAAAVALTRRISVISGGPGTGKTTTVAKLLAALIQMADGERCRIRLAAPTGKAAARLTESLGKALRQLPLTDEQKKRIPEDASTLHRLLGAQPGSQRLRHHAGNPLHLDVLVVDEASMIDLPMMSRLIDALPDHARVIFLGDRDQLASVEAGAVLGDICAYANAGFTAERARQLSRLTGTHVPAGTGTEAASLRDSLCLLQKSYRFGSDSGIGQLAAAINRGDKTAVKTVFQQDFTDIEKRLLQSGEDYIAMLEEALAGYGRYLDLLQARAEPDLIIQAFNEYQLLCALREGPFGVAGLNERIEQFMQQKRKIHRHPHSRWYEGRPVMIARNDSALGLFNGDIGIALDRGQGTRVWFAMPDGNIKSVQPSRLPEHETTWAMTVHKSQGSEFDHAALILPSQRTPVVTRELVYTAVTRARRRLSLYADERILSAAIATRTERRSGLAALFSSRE", "sequence (P07648 whole entry)": "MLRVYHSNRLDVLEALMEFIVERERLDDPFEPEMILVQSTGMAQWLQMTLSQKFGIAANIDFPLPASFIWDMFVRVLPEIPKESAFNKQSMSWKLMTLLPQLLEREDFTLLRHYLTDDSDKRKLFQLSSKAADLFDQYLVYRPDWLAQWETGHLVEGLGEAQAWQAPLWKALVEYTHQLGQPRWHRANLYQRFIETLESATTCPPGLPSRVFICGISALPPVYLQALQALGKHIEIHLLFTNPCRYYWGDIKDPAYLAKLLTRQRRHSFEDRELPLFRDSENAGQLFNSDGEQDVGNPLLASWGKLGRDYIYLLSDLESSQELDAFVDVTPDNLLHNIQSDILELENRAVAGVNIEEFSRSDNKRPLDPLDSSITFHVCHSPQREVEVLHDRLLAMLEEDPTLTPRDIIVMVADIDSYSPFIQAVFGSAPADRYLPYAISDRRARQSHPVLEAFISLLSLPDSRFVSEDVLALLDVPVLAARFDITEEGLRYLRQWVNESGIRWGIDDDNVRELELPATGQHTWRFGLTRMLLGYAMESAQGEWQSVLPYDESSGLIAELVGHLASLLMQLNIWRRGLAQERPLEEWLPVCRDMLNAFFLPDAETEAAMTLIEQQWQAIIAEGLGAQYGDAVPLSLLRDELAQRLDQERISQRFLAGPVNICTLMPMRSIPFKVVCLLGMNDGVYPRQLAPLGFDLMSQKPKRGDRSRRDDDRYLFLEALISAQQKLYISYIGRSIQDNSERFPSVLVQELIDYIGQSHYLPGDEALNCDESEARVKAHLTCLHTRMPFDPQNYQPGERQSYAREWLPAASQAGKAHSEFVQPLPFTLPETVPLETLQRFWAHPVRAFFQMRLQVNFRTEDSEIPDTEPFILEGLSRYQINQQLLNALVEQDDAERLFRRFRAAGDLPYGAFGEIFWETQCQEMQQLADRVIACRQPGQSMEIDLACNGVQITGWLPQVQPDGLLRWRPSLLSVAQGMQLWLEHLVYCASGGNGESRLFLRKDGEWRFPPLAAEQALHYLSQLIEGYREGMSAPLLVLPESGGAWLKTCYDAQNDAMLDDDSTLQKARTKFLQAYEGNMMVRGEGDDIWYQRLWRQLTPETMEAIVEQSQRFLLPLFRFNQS", "sequence (P08394 whole entry)": "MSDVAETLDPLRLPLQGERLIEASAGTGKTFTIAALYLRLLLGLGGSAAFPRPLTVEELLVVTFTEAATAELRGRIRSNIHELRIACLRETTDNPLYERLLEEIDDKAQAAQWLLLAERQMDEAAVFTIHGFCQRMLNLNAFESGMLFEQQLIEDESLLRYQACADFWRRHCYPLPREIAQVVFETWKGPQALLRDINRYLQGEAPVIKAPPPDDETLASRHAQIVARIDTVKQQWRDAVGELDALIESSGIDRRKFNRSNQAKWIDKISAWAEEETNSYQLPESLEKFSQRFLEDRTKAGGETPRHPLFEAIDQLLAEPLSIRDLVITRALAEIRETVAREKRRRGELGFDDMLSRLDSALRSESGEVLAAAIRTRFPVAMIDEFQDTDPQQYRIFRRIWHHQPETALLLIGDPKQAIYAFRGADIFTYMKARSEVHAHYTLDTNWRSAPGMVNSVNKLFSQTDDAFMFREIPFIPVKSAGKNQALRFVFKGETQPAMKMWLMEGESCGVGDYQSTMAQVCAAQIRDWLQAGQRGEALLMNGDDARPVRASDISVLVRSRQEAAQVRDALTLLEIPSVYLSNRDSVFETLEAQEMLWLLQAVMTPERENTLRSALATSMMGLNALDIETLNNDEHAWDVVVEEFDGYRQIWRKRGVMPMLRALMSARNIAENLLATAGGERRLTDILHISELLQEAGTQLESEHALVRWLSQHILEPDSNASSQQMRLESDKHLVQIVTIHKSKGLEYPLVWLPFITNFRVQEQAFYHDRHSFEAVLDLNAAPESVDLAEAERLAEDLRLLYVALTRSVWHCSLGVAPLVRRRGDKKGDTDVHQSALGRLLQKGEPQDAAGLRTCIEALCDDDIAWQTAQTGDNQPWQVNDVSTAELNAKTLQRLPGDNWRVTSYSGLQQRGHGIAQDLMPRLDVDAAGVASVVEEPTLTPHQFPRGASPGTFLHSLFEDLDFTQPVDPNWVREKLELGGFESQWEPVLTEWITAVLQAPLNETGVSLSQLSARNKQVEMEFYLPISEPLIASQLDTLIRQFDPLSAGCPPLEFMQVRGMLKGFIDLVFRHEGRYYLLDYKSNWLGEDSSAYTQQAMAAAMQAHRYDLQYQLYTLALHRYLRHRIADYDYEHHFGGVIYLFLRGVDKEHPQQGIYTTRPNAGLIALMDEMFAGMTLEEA", "test": "RecBCD inhibition via phage-restricted bacterial growth – absorbance, V66 E. coli, mutant T4 phage, counter-screen for AddAB inhibitor project, dose response (AID 492957)", "assay_type": "functional, cell-based, Escherichia coli str. K-12 substr. MG1655"}, "[14]": {"test": "Counterscreen for AddAB inhibitors: absorbance-based bacterial cell-based high throughput dose response assay for inhibitors of bacterial viability. [Related pubchem assays (depositor defined):AID435030, AID449728, AID449731, AID488942, AID488955, AID488956]", "assay_type": "functional"}, "[15]": {"test_system": "HEK293", "test": "EBV LMP1 TES2 canonical NF-kB signalling blockers – cell-based, HEK293, luciferase, cherry-pick, dose response (AID 588343)", "assay_type": "functional", "settings": "Homo sapiens"}, "[16]": {"molecular_target": "Heat shock protein HSP 90-alpha (Homo sapiens, UniProt P07900)", "assay_type": "functional, organism-based"}, "[17]": {"test": "reduction of Shn3 3'UTR-driven luciferase in osteoblasts – cell-based, Clone20 osteoblasts, firefly luciferase, cherry-picked, dose response (AID 624132)", "assay_type": "functional"}, "[18]": {"test": "loss of viability in HepG2 cells – cell-based, CellTiter-Glo, cherry-picked, cytotoxicity control for Shn3 inhibitor project, dose response (AID 624134)", "assay_type": "functional"}, "[19]": {"test": "non-specific 3'UTR reporter inhibition in Clone20-Shn3RL – cell-based, Renilla luciferase, cherry-picked, counter-screen for Shn3 inhibitor project, dose response (AID 624133)", "assay_type": "functional"}, "[20]": {"molecular_target": "1-acylglycerol-3-phosphate O-acyltransferase ABHD5/Perilipin-5 (Homo sapiens, UniProt Q00G26+Q8WTS1)", "test": "Luminescence-based biochemical high throughput dose response assay for inhibitors of the interaction of the lipase co-activator protein, abhydrolase domain containing 5 (ABHD5) with perilipin-5 (MLDP; PLIN5) (2K validation set). [Related pubchem assays (depositor defined):AID493035, AID493241]"}, "[21]": {"molecular_target": "Perilipin-1/ABHD5 (Homo sapiens, UniProt O60240+Q8WTS1)", "sequence (Q8WTS1 whole entry, the tested form may be a part)": "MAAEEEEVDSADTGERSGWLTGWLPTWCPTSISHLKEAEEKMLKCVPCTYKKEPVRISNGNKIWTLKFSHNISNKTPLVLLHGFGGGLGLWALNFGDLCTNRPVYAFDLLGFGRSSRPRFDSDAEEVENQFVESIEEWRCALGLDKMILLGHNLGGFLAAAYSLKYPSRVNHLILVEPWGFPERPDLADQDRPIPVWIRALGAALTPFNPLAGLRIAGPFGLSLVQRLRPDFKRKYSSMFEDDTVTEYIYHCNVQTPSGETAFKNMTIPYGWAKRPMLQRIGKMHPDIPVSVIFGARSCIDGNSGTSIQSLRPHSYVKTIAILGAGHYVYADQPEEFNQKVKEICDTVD", "sequence (O60240 whole entry, the tested form may be a part)": "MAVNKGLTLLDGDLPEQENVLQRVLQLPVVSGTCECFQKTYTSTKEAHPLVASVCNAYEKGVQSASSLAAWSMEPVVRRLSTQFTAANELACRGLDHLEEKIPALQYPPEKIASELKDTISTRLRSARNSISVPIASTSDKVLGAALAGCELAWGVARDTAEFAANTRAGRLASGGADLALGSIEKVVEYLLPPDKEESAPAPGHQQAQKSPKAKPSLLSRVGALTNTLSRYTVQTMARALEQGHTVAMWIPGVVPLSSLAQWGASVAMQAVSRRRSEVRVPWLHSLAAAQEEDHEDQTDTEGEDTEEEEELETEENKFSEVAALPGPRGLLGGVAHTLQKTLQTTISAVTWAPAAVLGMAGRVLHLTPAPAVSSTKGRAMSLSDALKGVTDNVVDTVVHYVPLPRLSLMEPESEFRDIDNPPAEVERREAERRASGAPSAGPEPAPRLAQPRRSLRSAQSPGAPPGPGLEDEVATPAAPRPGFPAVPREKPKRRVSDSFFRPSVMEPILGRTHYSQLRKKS", "test": "Luminescence-based biochemical high throughput dose response assay for inhibitors of the interaction of the lipase co-activator protein, abhydrolase domain containing 5 (ABHD5) with perilipin-1 (PLIN1) (2K validation set). [Related pubchem assays (depositor defined):AID493027, AID493057]"}}, "note": "Calls of active or inactive are those of the source.", "data": [{"molecule": "O=C(CSc1nc2ccccc2s1)N1c2ccccc2Sc2ccc(C(F)(F)F)cc21", "values": [{"measurement": "EC50", "setting": "[1]", "value": "1 µM (active)"}, {"measurement": "IC50", "setting": "[2]", "value": "> 32 µM (inactive)"}, {"measurement": "EC50", "setting": "[3]", "value": "< 0.062 µM (active)"}, {"measurement": "EC50", "setting": "[4]", "value": "1.17 µM (active)"}, {"measurement": "IC50", "setting": "[5]", "value": "> 32 µM (inactive)"}]}, {"molecule": "NC(=S)N=Nc1c(O)n(C2OC(=O)c3ccccc32)c2ccccc12", "note": "(centres undefined)", "values": [{"measurement": "IC50", "setting": "[6]", "value": "> 20 µM (inactive)"}, {"measurement": "IC50", "setting": "[7]", "value": "3.62 µM (active)"}, {"measurement": "IC50", "setting": "[8]", "value": "2.38 µM (active)"}]}, {"molecule": "N[C@@H](CO)c1cn([C@@H](Cc2cc3ccccc3[nH]2)C(=O)N2CCNCC2)nn1", "values": [{"measurement": "IC50", "setting": "[6]", "value": "> 20 µM (inactive)"}, {"measurement": "IC50", "setting": "[7]", "value": "12.3 µM (active)"}, {"measurement": "IC50", "setting": "[8]", "value": "10.9 µM (active)"}, {"measurement": "AC50", "setting": "[9]", "value": "3.52 µM (active)"}]}, {"molecule": "O=C(NCc1ccccc1)Nc1ccc2nc(-c3ccco3)c(-c3ccco3)nc2c1", "values": [{"measurement": "IC50", "setting": "[10]", "value": "1.54 µM (active)"}]}, {"molecule": "CC(C)C(=O)NC(c1ccc(Cl)cc1Cl)c1ccc2cccnc2c1O", "note": "(centres undefined)", "values": [{"measurement": "EC50", "setting": "[11]", "value": "7.49 µM (active)"}, {"measurement": "EC50", "setting": "[12]", "value": "> 350 µM (not active)"}, {"measurement": "IC50", "setting": "[13]", "value": "> 119 µM (inactive)"}, {"measurement": "IC50", "setting": "[14]", "value": "> 119 µM (inactive)"}, {"measurement": "AC50", "setting": "[15]", "value": "4.52 µM (active)"}, {"measurement": "AC50", "setting": "[16]", "value": "25.5 µM (active)"}, {"measurement": "AC50", "setting": "[17]", "value": "0.691 µM (active)"}, {"measurement": "AC50", "setting": "[18]", "value": "1.11 µM (active)"}, {"measurement": "AC50", "setting": "[19]", "value": "1.6 µM (active)"}]}, {"molecule": "O=C(/C=C/c1ccccc1)c1ccccc1", "note": "[CHALCONE]", "values": [{"measurement": "IC50", "setting": "[20]", "value": "4.25 µM (active)"}, {"measurement": "IC50", "setting": "[21]", "value": "4.19 µM (active)"}]}]}
